In ChEMBL document CHEMBL1139047, “Design and synthesis of a novel class of furan-based molecules as potential 20S proteasome inhibitors” (Bioorg Med Chem Lett, 2007):

Tests used:
[1] = Inhibition of trypsin-like activity of 20S proteasome; type: subcellular, Homo sapiens
[2] = Inhibition of chymotrypsin-like activity of 20S proteasome; type: subcellular, Homo sapiens
HepG2 = experiment: Antiproliferative activity against human HepG2 cells; type: functional, cell-based
[3] = Inhibition of peptidyl-glutamyl peptide hydrolase activity of 20S proteasome; type: subcellular, Homo sapiens
HL-60 = experiment: Antiproliferative activity against human HL60 cells; type: functional, cell-based

| SMILES | IC50 [2] | other results |
| --- | --- | --- |
| CC(C)C[C@H](NC(=O)[C@H](Cc1ccccc1)NC(=O)[C@H](Cc1ccccc1)NC(=O)OC(C)(C)C)C(=O)c1ccco1 | 7.85 µM | IC50 [1]: > 100 µM; IC50 (HepG2): 34.2 µM; IC50 [3]: > 100 µM; IC50 (HL-60): 37.1 µM |
| CC(C)[C@H](NC(=O)[C@H](Nc1ccccc1)[C@H](O)[C@H](Cc1ccccc1)NC(=O)OC(C)(C)C)C(=O)c1ccco1 | > 100 µM |  |
| CC(C)C[C@H](NC(=O)[C@H](NCc1ccccc1)[C@H](O)[C@H](Cc1ccccc1)NC(=O)OC(C)(C)C)C(=O)c1ccco1 | > 100 µM |  |
| CC(C)[C@H](NC(=O)[C@H](Cc1ccccc1)NC(=O)[C@H](Cc1ccccc1)NC(=O)OC(C)(C)C)C(=O)c1ccco1 | > 100 µM |  |
| CC(C)C[C@H](NC(=O)[C@@H](NC(=O)[C@H](Cc1ccccc1)NC(=O)OC(C)(C)C)C(C)C)C(=O)c1ccco1 | > 100 µM |  |
| CC(C)[C@H](NC(=O)[C@H](Cc1ccccc1)NC(=O)OC(C)(C)C)C(=O)N[C@H](C(=O)c1ccco1)C(C)C | > 100 µM |  |
| CC[C@@H](C)[C@H](NC(=O)[C@H](Nc1ccccc1)[C@H](O)[C@H](Cc1ccccc1)NC(=O)OC(C)(C)C)C(=O)c1ccco1 | > 100 µM |  |
| CC[C@@H](C)[C@H](NC(=O)[C@H](NCc1ccccc1)[C@H](O)[C@H](Cc1ccccc1)NC(=O)OC(C)(C)C)C(=O)c1ccco1 | > 100 µM |  |
| CC(C)[C@H](NC(=O)[C@H](NCc1ccccc1)[C@H](O)[C@H](Cc1ccccc1)NC(=O)OC(C)(C)C)C(=O)c1ccco1 | > 100 µM |  |
| CC(C)C[C@H](NC(=O)[C@H](Cc1ccccc1)NC(=O)OC(C)(C)C)C(=O)N[C@@H](CC(C)C)C(=O)c1ccco1 | > 100 µM |  |
| CC(C)C[C@H](NC(=O)[C@H](Nc1ccccc1)[C@H](O)[C@H](Cc1ccccc1)NC(=O)OC(C)(C)C)C(=O)c1ccco1 | > 100 µM |  |
| CC[C@H](C)[C@H](NC(=O)[C@H](CC(C)C)NC(=O)[C@H](Cc1ccccc1)NC(=O)OC(C)(C)C)C(=O)c1ccco1 | > 100 µM |  |
| CC[C@H](C)[C@H](NC(=O)[C@@H](NC(=O)[C@H](Cc1ccccc1)NC(=O)OC(C)(C)C)C(C)C)C(=O)c1ccco1 | > 100 µM |  |
| CC[C@H](C)[C@H](NC(=O)[C@H](Cc1ccccc1)NC(=O)[C@H](Cc1ccccc1)NC(=O)OC(C)(C)C)C(=O)c1ccco1 | > 100 µM |  |
| CC(C)C[C@H](NC(=O)[C@H](Cc1ccccc1)NC(=O)OC(C)(C)C)C(=O)N[C@H](C(=O)c1ccco1)C(C)C | > 100 µM |  |
